{"source": "paper PMC5650142", "about": "“GPR40 partial agonists and AgoPAMs: Differentiating effects on glucose and hormonal secretions in the rodent” (PLoS ONE, 2017)", "key": {"[1]": {"tested_on": "wild type and GPR40-/- mice", "assay": "Mouse incretin measurements (plasma glucagon, wild type and GPR40-/- mice)", "assay_type": "in vivo", "conditions": "for Plasma Glucagon: @ 30, individual animals (Fig 6A)", "description": "Wild type and GPR40-/- mice were weighed the day prior to dosing. Food was removed from mice at lights on. 2 hours later mice were dosed via oral gavage (PO) at a volume of 10 ml/kg with vehicle (0.5% methylcellulose), AP1 at 30 mg/kg, or AP3 at 30 mg/kg. At 60 minutes post dose, mice were euthanized via CO2 asphyxiation. Blood was collected via cardiac puncture.\n(§1) Blood for insulin, glucagon, GLP-1, GIP, and PYY measurements was collected into K2EDTA Microtainer tubes (BD, Franklin Lakes, NJ) pre-treated with DPP4 inhibitor (Millipore, Billerica, MA) and cOmplete™ Protease Inhibitor Cocktail Tablets (Roche Diagnostics, Indianapolis, IN). Tubes were centrifuged for 10 minutes at 5000 RPM, and plasma was aliquotted for analysis. Plasma insulin levels were measured via EIA (Mesoscale Discovery ELISA Kit, Gaithersburg MD). Rat plasma total GLP-1 was measured using Total GLP-1 (ver.2) Assay Kit (Cat#: K150JVC). The measurement of active GLP-1 was carried out in a similar manner as that described for total GLP-1 assay with the exception that MSD Active GLP-1 (ver. 2) assay kit (Cat# K150JWC) was used. Rat plasma glucagon was measured using an in-house glucagon assay developed as a MSD format sandwich immunoassay (Merck & Co., Inc., MRL, Kenilworth, NJ USA). The antibody specificity was cross validated via mass- spec using procedures described in Lee et al. Briefly, MSD Streptavidin Gold plates were coated with 2 μg/ml biotin mouse monoclonal antibody generated to glucagon. Test samples were added to the plates and a separate Sulfo- tagged monoclonal antibody was used to detect the captured glucagon protein (2 μg/ml). The ELISA was carried out in the standard reagents in the MSD format. The plate was read on the SECTOR Imager 6000 Reader. Metabolic hormones GIP (Gastric Inhibitory Polypeptide) and PYY (Peptide YY) were measured in rat plasma using the Rat Metabolic Magnetic Bead Panel (EMD Millipore, Billerica, MA). The assay was performed according to manufacturer protocol."}, "[2]": {"tested_on": "wild type C57BL/6 and GLP-1R-/- mice", "assay": "Mouse glucose tolerance test (IPGTT, wild type and GLP-1R-/- mice)", "assay_type": "in vivo", "set-up": "Blood Glucose Net AUC: unit not given here", "conditions": "for Blood Glucose / Plasma Insulin: 30 mpk, 30 mg/kg; for Blood Glucose Net AUC: @ 30, individual animals", "description": "Wild type C57BL/6 mice and GLP-1R^-/- mice were fed a high fat diet (D12492i, Research Diets) for 6 weeks prior to GTT. On the day of study, mice were fasted at 1 h post lights on, and body weights were measured. […] Mice were then dosed PO at a volume of 10 ml/kg with vehicle (0.5% methylcellulose), MK-2305 (a GPR40 partial agonist described in Hauge et al) at 10 mg/kg, or AP1 at 30 mg/kg. Dosages of MK-2305 and AP1 were administered at maximal efficacious doses as determined by acute dose titrations with efficacy determined via reduction in glucose during an IPGTT (data not shown). […] Blood glucose was measured again (time = 0) just prior to an intraperitoneal (IP) dextrose challenge of 1 g/kg at 10 ml/kg dose volume (Dextrose, Hospira Inc., Lake Forrest IL). A subset of vehicle treated mice was injected with 0.9% NaCl saline to serve as negative control. Blood glucose was then measured at 10, 20, 40, 60, and 120 min after challenge. To capture insulin secretion during the IPGTT, blood via tail vein was collected at t = - 60, 0, 10, 20, 40, 60 min post challenge.\nNet AUC was calculated by subtracting the average AUC of the saline group from each groups’ total AUC.\nas §1"}, "[3]": {"conditions": "GLP-1R-/- and wild type mice, MK-2305 10 mg/kg, AP1 30 mg/kg PO"}, "[4]": {"conditions": "KO mice, Time 0, individual animals"}, "[5]": {"conditions": "KO mice, Time 10, individual animals"}, "[6]": {"conditions": "KO mice, Time 20, individual animals"}, "[7]": {"conditions": "KO mice, Time 40, individual animals"}, "[8]": {"conditions": "KO mice, Time 60, individual animals"}, "[9]": {"conditions": "KO mice, Time -60, individual animals"}, "[10]": {"conditions": "WT mice, Time 0, individual animals"}, "[11]": {"conditions": "WT mice, Time 10, individual animals"}, "[12]": {"conditions": "WT mice, Time 20, individual animals"}, "[13]": {"conditions": "WT mice, Time 60, individual animals"}, "[14]": {"conditions": "WT mice, Time -60, individual animals"}}, "note": "Values joined by “and” are separate entries in the source; they are usually repeats but may differ in a detail not shown here. Equal entries are not always repeated."}
{"smiles": "COc1ccc(F)c(-c2ccc([C@@H]3CCc4ccc([C@H](C5CC5)[C@H](C)C(=O)O)cc4O3)cc2)c1", "note": "[AP1]", "values": [{"measurement": "Plasma Glucagon", "setting": "[1]; KO mice", "result": "13.34 pg/mL and 13.81 pg/mL and 52.65 pg/mL and 26.95 pg/mL and 36.14 pg/mL and 35.65 pg/mL"}, {"measurement": "circulating glucagon", "setting": "[1]; WT mice, 30 mg/kg PO, 1h post dose", "result": "increase"}, {"measurement": "Plasma Glucagon", "setting": "[1]; WT mice", "result": "101.77 pg/mL and 108.33 pg/mL and 114.33 pg/mL and 421.21 pg/mL and 183.75 pg/mL and 252.53 pg/mL and 120.41 pg/mL"}, {"measurement": "blood glucose excursion during IPGTT", "setting": "[2]; [3]", "result": "reduced"}, {"measurement": "insulin following dextrose challenge (IPGTT)", "setting": "[2]; [3]", "result": "increased insulin following the dextrose challenge in both knockout and wild type mice"}, {"measurement": "Blood Glucose", "setting": "[2]; [4]", "result": "84 mg/dL and 106 mg/dL and 108 mg/dL and 102 mg/dL and 90 mg/dL and 97 mg/dL and 104 mg/dL"}, {"measurement": "Plasma Insulin", "setting": "[2]; [4]", "result": "1.042 ng/ml and 1.305 ng/ml and 1.695* ng/ml and 1.425 ng/ml and 1.092 ng/ml and 1.099 ng/ml and 1.131 ng/ml"}, {"measurement": "Blood Glucose", "setting": "[2]; [5]", "result": "140 mg/dl and 143 mg/dl (2×) and 241 mg/dl and 103 mg/dl and 112 mg/dl and 152 mg/dl"}, {"measurement": "Plasma Insulin", "setting": "[2]; [5]", "result": "1.818 ng/ml and 1.304 ng/ml and 8.134* ng/ml and 2.799 ng/ml and 1.233 ng/ml and 2.777 ng/ml and 1.836 ng/ml"}, {"measurement": "Blood Glucose", "setting": "[2]; [6]", "result": "79 mg/dL and 107 mg/dL and 145 mg/dL and 126 mg/dL and 76 mg/dL and 80 mg/dL and 104 mg/dL"}, {"measurement": "Plasma Insulin", "setting": "[2]; [6]", "result": "1.06 ng/ml and 0.804 ng/ml and 3.066* ng/ml and 1.963 ng/ml and 0.693 ng/ml and 1.694 ng/ml and 1.832 ng/ml"}, {"measurement": "Blood Glucose", "setting": "[2]; [7]", "result": "58 mg/dL and 108 mg/dL"}, {"measurement": "Plasma Insulin", "setting": "[2]; [7]", "result": "0.728 ng/ml and 0.449 ng/ml and 1.028* ng/ml and 0.546 ng/ml and 0.513 ng/ml and 0.552 ng/ml and 0.628 ng/ml"}, {"measurement": "Blood Glucose", "setting": "[2]; [8]", "result": "75 mg/dL and 116 mg/dL and 106 mg/dL and 69 mg/dL and 92 mg/dL and 78 mg/dL and 110 mg/dL"}, {"measurement": "Plasma Insulin", "setting": "[2]; [8]", "result": "0.445 ng/ml and 0.264 ng/ml and 0.373* ng/ml and 0.39 ng/ml and 0.327 ng/ml and 0.218 ng/ml and 0.377 ng/ml"}, {"measurement": "Blood Glucose", "setting": "[2]; KO mice, Time 120, individual animals", "result": "66 mg/dL and 102 mg/dL and 86 mg/dL and 103 mg/dL and 77 mg/dL and 71 mg/dL and 121 mg/dL"}, {"measurement": "Blood Glucose", "setting": "[2]; [9]", "result": "190 mg/dl and 206 mg/dl (2×) and 172 mg/dl and 181 mg/dl and 204 mg/dl and 230 mg/dl"}, {"measurement": "Plasma Insulin", "setting": "[2]; [9]", "result": "0.47 ng/ml and 0.396 ng/ml and 1.185* ng/ml and 0.53 ng/ml and 0.25 ng/ml and 0.347 ng/ml and 0.673 ng/ml"}, {"measurement": "Blood Glucose", "setting": "[2]; KO mice, Time -90, individual animals", "result": "196 mg/dL and 173 mg/dL and 164 mg/dL and 153 mg/dL and 203 mg/dL and 170 mg/dL and 187 mg/dL"}, {"measurement": "Blood Glucose Net AUC", "setting": "[2]; KO mice", "result": "-16949 and -21574 and -17294 and -16394 and -19399 and -20469 and -21384"}, {"measurement": "Blood Glucose", "setting": "[2]; [10]", "result": "89 mg/dl and 78 mg/dl and 112 mg/dl and 100 mg/dl and 85 mg/dl (2×) and 93 mg/dl"}, {"measurement": "Plasma Insulin", "setting": "[2]; [10]", "result": "3.656 ng/ml and 8.79 ng/ml and 40.989* ng/ml and 1.246 ng/ml and 3.561 ng/ml and 1.813 ng/ml and 4.832 ng/ml"}, {"measurement": "Blood Glucose", "setting": "[2]; [11]", "result": "166 mg/dL and 152 mg/dL and 163 mg/dL and 220 mg/dL and 195 mg/dL and 184 mg/dL and 168 mg/dL"}, {"measurement": "Plasma Insulin", "setting": "[2]; [11]", "result": "14.251 ng/ml and 18.912 ng/ml and 38.822* ng/ml and 7.869 ng/ml and 14.176 ng/ml and 5.575 ng/ml and 12.785 ng/ml"}, {"measurement": "Blood Glucose", "setting": "[2]; [12]", "result": "91 mg/dL and 101 mg/dL and 128 mg/dL and 137 mg/dL and 134 mg/dL and 97 mg/dL and 94 mg/dL"}, {"measurement": "Plasma Insulin", "setting": "[2]; [12]", "result": "4.859 ng/ml and 8.657 ng/ml and 36.643* ng/ml and 4.529 ng/ml and 12.495 ng/ml and 4.309 ng/ml and 7.23 ng/ml"}, {"measurement": "Plasma Insulin", "setting": "[2]; WT mice, Time 40, individual animals", "result": "1.713 ng/ml and 4.072 ng/ml and 12.598* ng/ml and 2.583 ng/ml and 4.314 ng/ml and 1.11 ng/ml and 3.089 ng/ml"}, {"measurement": "Blood Glucose", "setting": "[2]; [13]", "result": "92 mg/dL and 102 mg/dL and 81 mg/dL and 87 mg/dL and 72 mg/dL and 96 mg/dL and 104 mg/dL"}, {"measurement": "Plasma Insulin", "setting": "[2]; [13]", "result": "1.617 ng/ml and 3.058 ng/ml and 8.765* ng/ml and 1.2 ng/ml and 2.106 ng/ml and 0.602 ng/ml and 3.057 ng/ml"}, {"measurement": "Blood Glucose", "setting": "[2]; WT mice, Time 120, individual animals", "result": "76 mg/dl and 96 mg/dl (2×) and 126 mg/dl and 113 mg/dl and 92 mg/dl and 93 mg/dl"}, {"measurement": "Blood Glucose", "setting": "[2]; [14]", "result": "175 mg/dL and 176 mg/dL and 194 mg/dL and 178 mg/dL and 190 mg/dL and 196 mg/dL and 226 mg/dL"}, {"measurement": "Plasma Insulin", "setting": "[2]; [14]", "result": "0.973 ng/ml (2×) and 2.15 ng/ml and 4.52* ng/ml and 0.764 ng/ml and 1.183 ng/ml and 1.616 ng/ml"}, {"measurement": "Blood Glucose", "setting": "[2]; WT mice, Time -90, individual animals", "result": "168 mg/dL and 146 mg/dL and 183 mg/dL and 161 mg/dL and 151 mg/dL and 156 mg/dL and 176 mg/dL"}, {"measurement": "Blood Glucose Net AUC", "setting": "[2]; WT mice", "result": "-13948 and -15303 and -14628 and -14263 and -12238 and -14078 and -14253"}]}
